Reference: patent publication US6984640B1, “Antiparasitic artemisinin derivatives (endoperoxides)” (Bayer Aktiengesellschaft, priority 1998, dated 2006)

Columns and labels:
Format in all cases: cell-based
[1] = system: Plasmodium falciparum W2 strain (chloroquine resistant); test: In vitro screening against Plasmodium falciparum, 3H-hypoxanthine incorporation, W2 strain; details: for In vitro activity: (IC10) / In vitro activity: IC50 / In vitro activity: IC90: 66 hours incubation
Source text: (§1) Two parasite strains—W2 resistant to chloroquine, and D6 sensitive to chloroquine but resistant to mefloquine were used. In Table IV below, the best compounds should show no cross resistance between the two strains.
(§2) The assay relies on incorporation of radiolabelled hypoxanthine by the parasite and inhibition of incorporation is attributed to activity of known or candidate antimalarial drugs. For each assay, proven antimalarials such as chloroquine, mefloquine, quinine, artemisinin and pyrimethamine were used as controls. The incubation period was 66 hours, and the starting parasitemia was 0.2% with 1% hematocrit. The medium was an RPMI-1640 culture with no folate or p-aminobenzoic acid. Albumax rather than 10% normal heat inactivated human plasma was used as, with Albumax, less protein binding is observed, and compounds elicit slightly higher activities in this model. If a compound was submitted with no prior knowledge of activity, it was dissolved directly in dimethyl sulphoxide (DMSO), and diluted 400 fold with complete culture medium. The unknown compound was started at a maximum concentration of 50,000 ng ml^−1 and sequentially diluted 2-fold for 11 times to give a concentration range of […]. These dilutions were performed automatically by a Biomek 1000 Liquid Handling System in 96-well microtiter plates. The diluted drugs were then transferred to test plates, 200 μl of parasitized erythrocytes were added, and incubated at 37° C. in a controlled environment of 5% CO2, 5% O2 and 90% N2. After 42 hours, 25 μl of ^3H-hypoxanthine was added, and the plates incubated for an additional 24 hours. After 66 hours, the plates were frozen at −70° C. to lyse the red cells, and then thawed and harvested onto glass fiber filter mats in a 96-well harvester. The filter mats were then counted in a scintillation counter. For each drug, the concentration response profile was determined and 50%, 90% and 10% inhibitory concentrations (IC50 IC90 and IC10) were determined by a non-linear logistic dose response analysis program.
(§3) A prescreen format can be used wherein a 3-dilution assay may be used to determine activity at high medium or low concentrations. The concentrations were selected as 50,000, 500 and 50 ng ml^−1. These were performed in duplicate on a 96-well format plate with 14 test compounds and one known (standard) compound per plate. The system was automated with a Biomek diluter for mixing and diluting the drugs, and adding drugs and parasites to a test plate. In the prescreen format, if the ANALYSIS FIELD (AP) has a “<”, then the compound was “very active” and the IC values are most likely to be below the last dilution value (in nanograms/ml), which is listed next to AF. In most cases, these compounds were run again at lower starting concentration to determine the true IC value. If the AF has a “>”, then the IC value is greater than the prescreen dilution value; thus “AF>250” means that the IC value is greater than 250 ng ml^−1 and no further screening is carried out. In such cases, values of 0.00 are entered for IC values.

[2] = system: Plasmodium falciparum D6 strain (chloroquine sensitive); test: In vitro screening against Plasmodium falciparum, 3H-hypoxanthine incorporation, D6 strain; details: 66 hours incubation
Source text: as §1, §2, §3

Neospora caninum = test: Screening against Neospora caninum cell cultures in vitro (VERO or ED host cells); parameters: key: 0 = no effect monolayer completely destroyed; 1 = weak effect monolayer partly destroyed, parasite clumps can be seen; 2 = full effect monolayer intact, no tachyzoites observable; T = cytotoxic cells are dead, lysed; details: microscopic evaluation 4 days after treatment
Procedure: Screening was conducted in 96-well plates (Falcon 3872). A monolayer of host cells (VERO or ED) were placed on a cell culture plate. Non-infected mono-layers of cells were cultured in two 50 ml tissue culture bottles ([…] cell culture area). The cell layer was detached with trypsin-EDTA (5 ml. Gibco 45300-019) in a CO2-culture cupboard at 37° C. After 10 minutes, most of the cells were detached. The cells were transferred with a 5 ml pipette into a 50 ml centrifuge tube (Greiner, B769331) containing about 1 ml warmed fetal calf serum. After centrifugation for 5 minutes at 1500 rpm (Varifuge 3.0, Heraeus), the liquid was removed and the cell pellet suspended in RPMI medium (100 ml, 95% RPMI 1640, 2% FCS, 1% L-glutamine, 1% sodium hydrogen carbonate, 1% penicillin/streptomycin). The cell suspension was pipetted into six 96-well plates at 150 μl per well. The coated cell culture plates were placed in an incubation cupboard at 37° C. under 5% CO2 for 24 hours. The cells were then infected with Neospora caninum tachyzoites at a concentration of 48,000 tachyzoites per well. This was followed by incubation at 37° C. under 5% CO2 for 24 hours.
The test compounds (0.5-1.5 mg) were weighed into 1.5 ml eppendorf vessels and dissolved in 1 ml dimethyl sulphoxide, corresponding to a dilution of about 1×10^−3 g ml^−1. The medium used for further dilution consisted of 87% RPMI 1640, 10% FCS, 1% L-glutamine, 1% sodium hydrogen carbonate, 1% penicillin/streptomycin. In the first screening, concentrations of […], […] and 10^−7 g ml^−1 were used. The diluted preparations were then transferred to the cell culture plates at a volume of 150 μl per well after 24 hour infection with Neospora caninum. For the first row, untreated medium was used; this row contained infected and uninfected cells as controls. The cell plate was incubated at 37° C. under 5% CO2 for 5 days. Microscopic evaluation was conducted 4 days after treatment and 5 days after infection at a magnification of 25×10 in an inverse microscope according to the following evaluation scheme.

Eimeria tenella = test: Screening against Eimeria tenella cell cultures in vitro (chick kidney cells); parameters: key: 3 = very active no intact parasites/well; 2 = active 1-6 parasites per well; 1 = weakly active up to 1 intact schizont/optical field of vision; 0 = inactive >1 intact schizont/optical field of vision; T = cytotoxic host cells are dead; details: day 5 post infection
Procedure: Cells from kidneys of 19 day old chicks are cultured as monolayers in 96-well plates (Falcon 3872) in a medium of Hanks lactalbumine hydrolysate, 5% fetal calf serum, 1% glutamine and 1% non-essential amino acids. After two days at 42° C. under 5% CO2, the culture was infected with excised sporozoites of Eimeria tenella at about […] per well. Test compounds were dissolved in DKSO and diluted with culture medium to a maximum end concentration of 10 μg ml^−1. The dilution steps were 1:10. On day 5 post infection, the cultures were evaluated under a microscope at 100-fold magnification and the condition of the host cells and the amount of intact schizonts and free merozoites was determined.

Structure (SMILES) | In vitro activity: (IC10) [1] | In vitro activity: IC50 [1] | In vitro activity: IC90 [1] | In vitro activity: (IC10) [2] | In vitro activity: IC50 [2] | In vitro activity: IC90 [2] | Evaluation of effect against Neospora caninum (Neospora caninum; Dose 10^−5 g/ml) | Effectiveness rating against Eimeria tenella (Eimeria tenella; Dose 10^−5 g/ml) | Effectiveness rating against Eimeria tenella (Eimeria tenella; Dose 10^−6 g/ml) | Effectiveness rating against Eimeria tenella (Eimeria tenella; Dose 10^−7 g/ml) | Evaluation of effect against Neospora caninum (Neospora caninum; Dose 10^−6 g/ml) | Evaluation of effect against Neospora caninum (Neospora caninum; Dose 10^−7 g/ml) | Effectiveness rating against Eimeria tenella (Eimeria tenella; Dose 10^−8 g/ml) | Evaluation of effect against Neospora caninum (Neospora caninum; Dose 10^−8 g/ml) | ANALYSIS FIELD (AF): bound on the IC values in prescreen format ([1]; prescreen 3-dilution assay, 0.00 entered for IC values)
COc1cc(OC)c(C2OC3OC4(C)CCC5C(C)CCC(C2C)C35OO4)c(OC)c1 (mixture of isomers) [Example 12] | 0.47 ng/mL | 0.78 ng/mL | 1.32 ng/mL | 0.35 ng/mL | 0.77 ng/mL | 1.70 ng/mL | – | – | – | – | – | – | – | – | –
CC1CCC2[C@@H](C)C(=O)OC3O[C@]4(C)CCC1C32OO4 (stereo partly shown) [Artemisinin, artemisinin] | – | – | – | – | – | – | 0 | 2 (2 = active 1-6 parasites per well) | 1 (1 = weakly active up to 1 intact schizont/optical field of vision) | 0 (0 = inactive >1 intact schizont/optical field of vision) | – | – | – | – | –
CC1CCC2C(C)C(F)OC3OC4(C)CCC1C32OO4 (stereo not drawn) [Example 1, 10β-fluoro-10-deoxo-10-dihydroartemisinin] | – | 0.69 ng/mL | 0.98 ng/mL | – | 0.74 ng/mL | 1.36 ng/mL | – | – | – | – | – | – | – | – | –
CC1CCC2C(C)C(c3ccccc3)OC3OC4(C)CCC1C32OO4 (stereo not drawn) [Example 2, 10β-phenyl-10-deoxo-10-dihydroartemisinin] | 0.19 ng/mL | 0.31 ng/mL | 0.52 ng/mL | 0.53 ng/mL | 0.73 ng/mL | 0.99 ng/mL | 1 | 2 (2 = active 1-6 parasites per well) | 2 (2 = active 1-6 parasites per well) | 1 (1 = weakly active up to 1 intact schizont/optical field of vision) | 1 | 0 | 0 (0 = inactive >1 intact schizont/optical field of vision) | – | –
COc1ccc(C2O[C@@H]3O[C@@]4(C)CC[C@H]5[C@H](C)CC[C@@H]([C@H]2C)[C@@]35OO4)c(OC)c1 (stereo partly shown) [Example 4, 10-(2′,4′-dimethoxyphenyl)-10-deoxo-10-dihydroartemisinin] | 0.40 ng/mL | 0.84 ng/mL | 1.74 ng/mL | 0.52 ng/mL | 1.05 ng/mL | 2.10 ng/mL | – | – | – | – | – | – | – | – | –
CC1CCC2C(C)C(Nc3ccccc3)OC3OC4(C)CCC1C32OO4 (stereo not shown) [Example 15] | 0.52 ng/mL | 0.66 ng/mL | 0.84 ng/mL | 0.48 ng/mL | 0.61 ng/mL | 0.78 ng/mL | – | 2 (2 = active 1-6 parasites per well) | 2 (2 = active 1-6 parasites per well) | 1 (1 = weakly active up to 1 intact schizont/optical field of vision) | 1 | 1 | 0 (0 = inactive >1 intact schizont/optical field of vision) | 0 | –
CC1CCC2C(C)C(Nc3ccc(F)cc3)OC3OC4(C)CCC1C32OO4 (stereo not shown) [Example 16] | 0.49 ng/mL | 0.64 ng/mL | 0.84 ng/mL | 0.48 ng/mL | 0.61 ng/mL | 0.78 ng/mL | – | – | – | – | – | – | – | – | –
CC1CCC2C(C)C(NCc3ccccc3)OC3OC4(C)CCC1C32OO4 (stereo not shown) [Example 21] | – | – | – | 0.79 ng/mL | 1.77 ng/mL | 3.96 ng/mL | 2 | – | 0 (0 = inactive >1 intact schizont/optical field of vision) | – | 0 | – | – | – | –
CCN(CC)C1OC2OC3(C)CCC4C(C)CCC(C1C)C24OO3 (stereo not shown) [Example 26] | – | – | – | 5.05 ng/mL | 9.05 ng/mL | 16.24 ng/mL | – | – | – | – | – | – | – | – | 0.00; 0.00 AF < 4 ng/ml
CC(NC1OC2OC3(C)CCC4C(C)CCC(C1C)C24OO3)c1ccccc1 (stereo not shown) [Example 30] | – | – | – | 6.74 ng/mL | 11.20 ng/mL | 18.61 ng/mL | 1 | T | 2 (2 = active 1-6 parasites per well) | 0 (0 = inactive >1 intact schizont/optical field of vision) | 0 | – | – | – | –
CC1CCC2C(C)C(c3ccc(Br)cc3)OC3OC4(C)CCC1C32OO4 (stereo not shown) [Example 38] | 0.55 ng/mL | 1.23 ng/mL | 2.76 ng/mL | 0.22 ng/mL | 0.90 ng/mL | 3.69 ng/mL | – | – | – | – | – | – | – | – | –
COc1cc(OC)c(C2OC3OC4(C)CCC5C(C)CCC(C2C)C35OO4)c(OC)c1 (stereo not shown) [Example 44] | 0.13 ng/mL | 0.3318 ng/mL | 0.8168 ng/mL | 0.29 ng/mL | 0.69 ng/mL | 1.67 ng/mL | – | – | – | – | – | – | – | – | –
